The subject of data set [1] is DG-75 Burkitt lymphoma cell line (EBV−, chemoresistant). Kind of data set: cells. The conditions noted are these: Homo sapiens, DG-75, 48 h; for viability at 1 µM: read-out: DG-75 Cell Viability % 1 μM, 1 μM, 48 h; for viability at 10 µM: read-out: DG-75 Cell Viability % 10 μM, 10 μM, 48 h.
Data set [2] concerns MUTU-1 Burkitt lymphoma cell line (EBV+). The experiment in a line: cells. The conditions noted are these: Mutu-1, 24 h; for viability at 1 µM: read-out: MUTU-1 Cell Viability % 1 μM, 1 μM, 24 h; for viability at 10 µM: read-out: MUTU-1 Cell Viability % 10 μM, 10 μM, 24 h; for pIC50: read-out: IC50 MUTU-I 24 h.

Structures are written as SMILES. pIC50: −log10 of the molar value.

One may read the viability as a read-out of living cells in per cent, often relative to untreated cells. By melting point is commonly meant the temperature of the solid-liquid transition. By pIC50 is commonly meant the negative decadic logarithm of the IC50, by convention in mol/L.

In turn, `N#C/C=C/C12c3ccccc3C(c3ccccc31)C1C(=O)OC(=O)C12` (stereo not drawn) [Compound 23a, (E)-3-(12,14-Dioxo-9,10-[3,4]furanoanthracen-9(10H)-yl)acrylonitrile] displayed a melting point of 215 to 219 °C. In data set [1], the viability at 1 µM was found to be 89% and the viability at 10 µM was found to be 75.8%. Moreover, in data set [2], the viability at 1 µM was 82.7% and the viability at 10 µM worked out at 82.6%.
Molecule `COc1cc(N2C(=O)C3C4c5ccccc5C(/C=C/[N+](=O)[O-])(c5ccccc54)C3C2=O)cc(OC)c1OC` (stereo not drawn) [Compound 16f, (E)-9-(2-Nitrovinyl)-13-(3,4,5-trimethoxyphenyl)-9,10-dihydro-9,10-[3,4]epipyrroloanthracene-12,14-dione] displayed a melting point of 270 to 272 °C. In data set [1], the viability at 1 µM worked out at 25.6% and the viability at 10 µM was 0.46%. Also, in data set [2], the pIC50 is 6.62, the viability at 1 µM is 1.8% and the viability at 10 µM was determined as 1.1%.
The molecule `CC(=CC12c3ccccc3C(c3ccccc31)c1ccccc12)[N+](=O)[O-]` [Compound 20b, (E)-9-(2-Nitroprop-1-en-1-yl)-9,10-dihydro-9,10-[1,2]benzenoanthracene] registered a melting point of 226 to 228 °C. Also, in data set [1], the viability at 1 µM turned out to be 86.4% and the viability at 10 µM is 100%. In addition, in data set [2], the viability at 1 µM came out at 95.2% and the viability at 10 µM is 102%.
In turn, `COC(=O)c1ccc(N2C(=O)C3C4c5ccccc5C(/C=C/[N+](=O)[O-])(c5ccccc54)C3C2=O)cc1` (stereo not drawn) [Compound 16h, Methyl (E)-4-(9-(2-nitrovinyl)-12,14-dioxo-9,10-dihydro-9,10-[3,4]epipyrroloanthracen-13-yl)benzoate] returned a melting point of 254 to 255 °C. Moreover, in data set [1], the viability at 1 µM came to 20.8% and the viability at 10 µM was found to be 0.18%. Also, in data set [2], the pIC50 was 6.70, the viability at 1 µM was found to be 2.3% and the viability at 10 µM was determined as 0.79%.
For the molecule `O=C1C2C3c4ccccc4C(/C=C/[N+](=O)[O-])(c4ccccc43)C2C(=O)N1c1cccc(Cl)c1` (stereo not drawn) [Compound 16k, (E)-13-(3-Chlorophenyl)-9-(2-nitrovinyl)-9,10-dihydro-9,10-[3,4]epipyrroloanthracene-12,14-dione], the melting point lay within 258 to 261 °C. Besides, in data set [1], the viability at 1 µM worked out at 69% and the viability at 10 µM was 0%. In data set [2], the viability at 1 µM was found to be 2.7% and the viability at 10 µM was found to be 0.84%.
`N#CC(C#N)=CC12c3ccccc3C(c3ccccc31)C1C(=O)N(c3ccccc3)C(=O)C12` (stereo not drawn) [Compound 23f, 2-((12,14-Dioxo-13-phenyl-9,10-[3,4]epipyrroloanthracen-9(10H)-yl)methylene)malononitrile] gave a melting point of 255 to 258 °C. Further, in data set [1], the viability at 1 µM worked out at 82% and the viability at 10 µM was 81.6%. In addition, in data set [2], the viability at 1 µM turned out to be 78.9% and the viability at 10 µM worked out at 71.8%.
`O=C1C2C3c4ccccc4C(c4ccccc43)C2C(=O)N1c1ccccc1` (stereo not drawn) [Compound 21c] gave a melting point of 227 to 229 °C. For the same molecule, in data set [1], the viability at 1 µM came out at 85.7% and the viability at 10 µM is 71.3%. Also, in data set [2], the viability at 1 µM turned out to be 93% and the viability at 10 µM worked out at 91.2%.
On the same counts, the results for `CCC(=CC12c3ccccc3C(c3ccccc31)c1ccccc12)[N+](=O)[O-]` [Compound 20c, (E)-9-(2-Nitrobut-1-en-1-yl)-9,10-dihydro-9,10-[1,2]benzenoanthracene] are 210 to 211 °C, 95.1%, 84.8%, 106% and 102%.

Source of the values: PMC7168933, “Design, Synthesis and Biochemical Evaluation of Novel Ethanoanthracenes and Related Compounds to Target Burkitt’s Lymphoma” (Pharmaceuticals, 2020).
